What is called viability is a read-out of living cells in per cent, often relative to untreated cells.

Each structure is given as a SMILES string.

The source of these data is publication PMC11995724, “Antibiotic target discovery by integrated phenotypic and activity-based profiling of electrophilic fragments” (Cell chemical biology, 2025).

This series can be described thus: in vitro. Conditions: human, hek293t cells.
`CC(Cl)C(=O)Nc1nc(-c2ccccc2)cs1` (stereo not drawn) [6-L10, 2-chloro-N-(4-phenyl-1,3-thiazol-2-yl)propanamide]: the viability at 48 h, 25 µM worked out at 101%.

On to `CNC(=O)c1cc(OC2CCCN(C(=O)CCl)C2)ccn1` (stereo not drawn) [5-P05, 4-{[1-(2-chloroacetyl)piperidin-3-yl]oxy}-N-methylpyridine-2-carboxamide], for which the viability at 48 h, 25 µM is 1.84%.

Turning to `CC(Cl)C(=O)Nc1cc(Cl)c(Cl)cc1Cl` (stereo not drawn) [4-N13, 2-chloro-N-(2,4,5-trichlorophenyl)propanamide], the viability at 48 h, 25 µM turned out to be 71.7%.

For `Cc1cc(CO[C@H]2CC[C@H](NC(=O)CCl)CC2)on1` [6-K19, 2-chloro-N-[(1r,4r)-4-[(3-methyl-1,2-oxazol-5-yl)methoxy]cyclohexyl]acetamide], the viability at 48 h, 25 µM was found to be 88.1%.

Consider `C=CC(=O)N(C)CC(=O)N1CCn2cc(C(F)(F)F)nc2C1` [3-A04, N-methyl-N-{2-oxo-2-[2-(trifluoromethyl)-5H,6H,7H,8H-imidazo[1,2-a]pyrazin-7-yl]ethyl}prop-2-enamide], for which the viability at 48 h, 25 µM was 60.6%.

As to `CC(Cl)C(=O)Nc1c(Cl)cccc1Cl` (stereo not drawn) [4-B16, 2-chloro-N-(2,6-dichlorophenyl)propanamide], the viability at 48 h, 25 µM was determined as 128%.

For `C=CC(=O)Nc1cn(C)nc1OC(C)C` [1-F14, N-[1-methyl-3-(propan-2-yloxy)-1H-pyrazol-4-yl]prop-2-enamide], the viability at 48 h, 25 µM came to 71.2%.

Regarding `O=C(CCl)NC(c1ccccc1)c1ccco1` (stereo not drawn) [4-A08, 2-chloro-N-[(furan-2-yl)(phenyl)methyl]acetamide], the viability at 48 h, 25 µM is 2.75%.

With `CC(Cl)C(=O)N(C)C1CCCCC1` (stereo not drawn) [5-J04, 2-chloro-N-cyclohexyl-N-methylpropanamide], the viability at 48 h, 25 µM turned out to be 94.1%.

On to `CCc1nc2c(s1)C(N(C)C(=O)C(C)Cl)CCC2` (stereo not drawn) [7-N17, 2-chloro-N-(2-ethyl-4,5,6,7-tetrahydro-1,3-benzothiazol-7-yl)-N-methylpropanamide], for which the viability at 48 h, 25 µM came to 84.1%.

For `N#CC(=Cc1cccnc1)C(=O)NCCc1ccccc1` [9-K14, 2-cyano-N-(2-phenylethyl)-3-(pyridin-3-yl)prop-2-enamide], the viability at 48 h, 25 µM was determined as 89.3%.

On to `COc1ccc(Cl)cc1CNC(=O)CCl` [6-A16, 2-chloro-N-[(5-chloro-2-methoxyphenyl)methyl]acetamide], for which the viability at 48 h, 25 µM turned out to be 0.564%.

Take `COc1ccc(NC(=O)C(C#N)=Cc2c(C)n[nH]c2C)cc1` [8-I04, 2-cyano-3-(3,5-dimethyl-1H-pyrazol-4-yl)-N-(4-methoxyphenyl)prop-2-enamide]: the viability at 48 h, 25 µM stood at 84.7%.

As to `O=C(CCl)NCCSc1ccccc1` [4-G21, 2-chloro-N-[2-(phenylsulfanyl)ethyl]acetamide], the viability at 48 h, 25 µM came to 1.68%.

As for `N#CC(=Cc1cccc2ccccc12)C(=O)Nc1ccccc1Cl` [8-K11, N-(2-chlorophenyl)-2-cyano-3-(naphthalen-1-yl)prop-2-enamide], the viability at 48 h, 25 µM was found to be 80.5%.

For the compound `N#CC(C(=O)Nc1ccccc1)=C1NCCCN1` [8-H10, 2-cyano-2-(1,3-diazinan-2-ylidene)-N-phenylacetamide], the viability at 48 h, 25 µM came to 97.7%.

For `C=CC(=O)Nc1ccoc1C(=O)c1ccc(C)cc1` [1-A04, N-[2-(4-methylbenzoyl)furan-3-yl]prop-2-enamide], the viability at 48 h, 25 µM amounted to 0.123%.

As for `C=CC(=O)N(C)[C@H]1CS(=O)(=O)C[C@@H]1O` (racemic) [3-C15, rac-N-[(3R,4R)-4-hydroxy-1,1-dioxo-1lambda6-thiolan-3-yl]-N-methylprop-2-enamide], the viability at 48 h, 25 µM stood at 46%.

Consider `CC(Cl)C(=O)NC(C)(C)c1cccc(Cl)c1F` (stereo not drawn) [7-E15, 2-chloro-N-[2-(3-chloro-2-fluorophenyl)propan-2-yl]propanamide], for which the viability at 48 h, 25 µM turned out to be 91.2%.

Turning to `Cc1ccccc1NC(=O)C(C#N)=Cc1cc(C)n(C2CC2)c1C` [8-A16, 2-cyano-3-(1-cyclopropyl-2,5-dimethyl-1H-pyrrol-3-yl)-N-(2-methylphenyl)prop-2-enamide], the viability at 48 h, 25 µM stood at 47.1%.

Turning to `C=CC(=O)N1CCOC2(CCS(=O)(=O)C2)C1` (stereo not drawn) [2-C06, 9-(prop-2-enoyl)-6-oxa-2lambda6-thia-9-azaspiro[4.5]decane-2,2-dione], the viability at 48 h, 25 µM amounted to 101%.

With `O=C(CCl)Nc1ccc(-c2ccccc2)cc1` [4-N10, N-{[1,1'-biphenyl]-4-yl}-2-chloroacetamide], the viability at 48 h, 25 µM is 0.814%.

On to `Cc1cc(C=C(C#N)C(=O)Nc2ccccn2)c(C)n1CC(C)C` [9-J21, 2-cyano-3-[2,5-dimethyl-1-(2-methylpropyl)-1H-pyrrol-3-yl]-N-(pyridin-2-yl)prop-2-enamide], for which the viability at 48 h, 25 µM is 87.2%.

Take `C=CC(=O)NC1CCOC1C` (stereo not drawn) [1-F06, N-(2-methyloxolan-3-yl)prop-2-enamide]: the viability at 48 h, 25 µM worked out at 74.6%.

Turning to `Cc1ccsc1C=C(C#N)C(=O)Nc1c(Cl)cccc1Cl` [8-D22, 2-cyano-N-(2,6-dichlorophenyl)-3-(3-methylthiophen-2-yl)prop-2-enamide], the viability at 48 h, 25 µM came to 78.5%.

In the case of `C=CC(=O)NC(C)(C)c1ccc(S(N)(=O)=O)cc1F` [2-P17, N-[2-(2-fluoro-4-sulfamoylphenyl)propan-2-yl]prop-2-enamide], the viability at 48 h, 25 µM turned out to be 58.6%.

Regarding `N#Cc1ccc(OC2CN(C(=O)CCl)C2)cc1` [5-K07, 4-{[1-(2-chloroacetyl)azetidin-3-yl]oxy}benzonitrile], the viability at 48 h, 25 µM was determined as 0.233%.

Turning to `C=CC(=O)Nc1cccc(NS(=O)(=O)C2CC2)c1` [3-D16, N-(3-cyclopropanesulfonamidophenyl)prop-2-enamide], the viability at 48 h, 25 µM came to 80.5%.

For the compound `CC(Cl)C(=O)NCCN1C(=O)CSC1=O` (stereo not drawn) [5-M03, 2-chloro-N-[2-(2,4-dioxo-1,3-thiazolidin-3-yl)ethyl]propanamide], the viability at 48 h, 25 µM was determined as 87.2%.

Turning to `C=CC(=O)NCc1ccc(C(=O)N2CCC(NC(C)=O)CC2)cc1` [2-A12, N-{[4-(4-acetamidopiperidine-1-carbonyl)phenyl]methyl}prop-2-enamide], the viability at 48 h, 25 µM is 90.5%.

Consider `CCOc1cc(C=C(C#N)C(=O)Nc2cccc(C)c2)ccc1O` [9-G06, 2-cyano-3-(3-ethoxy-4-hydroxyphenyl)-N-(3-methylphenyl)prop-2-enamide], for which the viability at 48 h, 25 µM is 105%.

For `C=CC(=O)NC(C)c1cc2cnccc2o1` (stereo not drawn) [1-B08, N-(1-{furo[3,2-c]pyridin-2-yl}ethyl)prop-2-enamide], the viability at 48 h, 25 µM was found to be 80.6%.

For the compound `CC(Cl)C(=O)c1ccc2c(c1)CCC2` (stereo not drawn) [10-M08, 2-chloro-1-(2,3-dihydro-1H-inden-5-yl)propan-1-one], the viability at 48 h, 25 µM was found to be 95.2%.

With `CC(Cl)C(=O)NC1c2cc(F)ccc2CC1C` (stereo not drawn) [7-E16, 2-chloro-N-(6-fluoro-2-methyl-2,3-dihydro-1H-inden-1-yl)propanamide], the viability at 48 h, 25 µM came to 74.7%.

`CC(Cl)C(=O)Nc1ccc(Cl)cc1C(F)(F)F` (stereo not drawn) [4-A14, 2-chloro-N-[4-chloro-2-(trifluoromethyl)phenyl]propanamide]: the viability at 48 h, 25 µM turned out to be 50.2%.

Take `CC(Cl)C(=O)N1CCCc2ccc(N(C)C)cc2C1` (stereo not drawn) [7-C15, 2-chloro-1-[8-(dimethylamino)-2,3,4,5-tetrahydro-1H-2-benzazepin-2-yl]propan-1-one]: the viability at 48 h, 25 µM came to 82.1%.
